In patent US5288709A, “Erythromycin derivatives” (priority 1991, dated 1994):
≈ marks a conversion by molar mass, not a printed value. Like-named read-outs stand apart in the source and are kept apart here.

Columns and labels:
Assay in all cases: In-vitro antimicrobial activity primary screen (agar dilution MIC)
Format in all cases: cell-based
[1] = test system: Staphylococcus aureus CMX 503A; conditions: Staphylococcus aureus, CMX503A, 24 h, BHI agar, 20-24 h, read-out: MIC
Experimental: (§1) The antimicrobial spectra of several of the compounds of the present invention were tested as described below.
(§2) Twelve petri dishes containing successive aqueous dilutions of the test compounds, mixed with 10 mL of sterilized Brain Heart Infusion (BHI) agar (Difco 0418-01-5), were prepared. Each plate was inoculated with 1:100 (or 1:10 for slow growing strains (primarily Micrococcus and Streptococcus) dilutions of up to 32 different microorganisms, using a Steers replicator block. The inoculated plates were incubated at 35 37° C. for 20-24 hours. In addition, a control plate, using BHI agar containing no test compound, was prepared and incubated at the beginning and the end of each test.
(§3) An additional plate containing a compound having known susceptibility patterns for the organisms being tested and belonging to the same antibiotic class as the test compounds was also prepared and incubated as a further control, as well as to provide test-to test comparability. Erythromycin A was used for this purpose.
(§4) After incubation, each plate was read. The MIC (minimum inhibitory concentration) is defined as the lowest concentration of test compound yielding no growth, a slight haze, or sparsely isolated colonies on the inoculum spot as compared to the growth control containing no test compound.

[2] = test system: Staphylococcus aureus CMX 686B; conditions: CMX686B, BHI agar, 20-24 h, read-out: MIC
Experimental: as §1, §2, §3, §4

[3] = test system: Staphylococcus aureus CMX 553; conditions: Staphylococcus aureus, CMX553, 24 h, BHI agar, 20-24 h, read-out: MIC
Experimental: as §1, §2, §3, §4

[4] = test system: Pseudomonas aeruginosa K799/WT; conditions: Pseudomonas aeruginosa K799/WT; BHI agar, 20-24 h; read-out: MIC
Experimental: as §1, §2
(§5) An additional plate containing a compound having known susceptibility patterns for the organisms being tested and belonging to the same antibiotic class as the test compounds was also prepared and incubated as a further control, as well as to provide test-to test comparability.
as §4

Escherichia coli SS = conditions: Escherichia coli, 24 h, BHI agar, 20-24 h
Experimental: as §1, §2, §5, §4

[5] = test system: Klebsiella pneumoniae ATCC 8045; conditions: ATCC8045; Klebsiella pneumoniae ATCC 8045; BHI agar, 20-24 h; read-out: MIC
Experimental: as §1, §2, §5, §4

[6] = test system: Enterococcus faecium ATCC 8043; conditions: ATCC8043; Enterococcus faecium ATCC 8043; BHI agar, 20-24 h; read-out: MIC
Experimental: as §1, §2, §5, §4

[7] = test system: Pseudomonas aeruginosa A5007; conditions: Pseudomonas aeruginosa A5007; BHI agar, 20-24 h; read-out: MIC
Experimental: as §1, §2, §5, §4

Staphylococcus aureus 45 = conditions: Staphylococcus aureus, 45, 24 h, BHI agar, 20-24 h
Experimental: as §1, §2, §5, §4

[8] = test system: Staphylococcus epidermidis 3519; conditions: Staphylococcus epidermidis, 3519, 24 h, BHI agar, 20-24 h
Experimental: as §1, §2, §5, §4

[9] = test system: Streptococcus agalactiae CMX 508; conditions: CMX508, BHI agar, 20-24 h, read-out: MIC
Experimental: as §1, §2, §5, §4

Acinetobacter SP CMX 669 = conditions: SPCMX669; Acinetobacter SP CMX 669; BHI agar, 20-24 h; read-out: MIC
Experimental: as §1, §2, §5, §4

Escherichia coli H560 = conditions: Escherichia coli H560; BHI agar, 20-24 h; read-out: MIC
Experimental: as §1, §2, §5, §4

[10] = test system: Pseudomonas aeruginosa BMH10; conditions: BHI agar, 20-24 h, read-out: MIC
Experimental: as §1, §2, §5, §4

Escherichia coli DC-2 = conditions: DC2; Escherichia coli DC-2; BHI agar, 20-24 h; read-out: MIC
Experimental: as §1, §2, §5, §4

[11] = test system: Staphylococcus aureus 45 RAR2; conditions: Staphylococcus aureus, 45RAR2, 24 h, BHI agar, 20-24 h
Experimental: as §1, §2, §5, §4

[12] = test system: Pseudomonas aeruginosa K799/61; conditions: Pseudomonas aeruginosa, K799/61, 24 h
Experimental: as §1, §2, §5, §4

Pseudomonas cepacia 2961 = conditions: Burkholderia cepacia, BHI agar, 20-24 h, read-out: MIC
Experimental: as §1, §2, §5, §4

[13] = test system: Enterobacter aerogenes ATCC 13048; conditions: Klebsiella aerogenes, ATCC13048; Enterobacter aerogenes ATCC 13048; BHI agar, 20-24 h; read-out: MIC
Experimental: as §1, §2, §5, §4

[14] = test system: Streptococcus pyrogenes EES61; conditions: BHI agar, 20-24 h, read-out: MIC
Experimental: as §1, §2, §5, §4

Escherichia coli JUHL = conditions: Escherichia coli JUHL; BHI agar, 20-24 h; read-out: MIC
Experimental: as §1, §2, §5, §4

[15] = test system: Micrococcus luteus ATCC 4698; conditions: 20-24 h
Experimental: as §1, §2, §5, §4

[16] = test system: Streptococcus pyrogenes 2548 INDUC; conditions: Streptococcus, 2548INDUC, 24 h, BHI agar, 20-24 h
Experimental: as §1, §2, §5, §4

[17] = test system: Staphylococcus aureus A5177; conditions: Staphylococcus aureus, A5177, 24 h, Staphylococcus aureus A5177; BHI agar, 20-24 h
Experimental: as §1, §2, §5, §4

[18] = test system: Providencia stuartii CMX 640; conditions: CMX640; Providencia stuartii CMX 640; BHI agar, 20-24 h; read-out: MIC
Experimental: as §1, §2, §5, §4

[19] = test system: Streptococcus bovis A5169; conditions: Streptococcus equinus, BHI agar, 20-24 h, read-out: MIC
Experimental: as §1, §2, §5, §4

[20] = test system: Micrococcus luteus ATCC 9341; conditions: 20-24 h
Experimental: as §1, §2, §5, §4

[21] = test system: Staphylococcus aureus ATCC 6538P; conditions: Staphylococcus aureus, ATCC6538P, 24 h, BHI agar, 20-24 h
Experimental: as §1, §2, §5, §4

Q: How did the MIC [1] turn out when `CC[C@H]1OC(=O)[C@H](C)[C@@H](O[C@H]2C[C@@](C)(OC)[C@@H](NS(C)(=O)=O)[C@H](C)O2)[C@H](C)[C@@H](O[C@@H]2O[C@H](C)C[C@H](N(C)C)[C@H]2O)[C@](C)(O)C[C@@H](C)[C@@H]2O[C@@]1(C)C(=O)[C@H]2C` [Example 16, (4"S,9S)-9-Deoxo-4",11,12-trideoxy-9,12-epoxy-4"-(methylsulfonyl)amino-11-oxerythromycin A] was run?
A: Its MIC is 0.39 µg/mL (≈ 0.492 µM).

Q: And the MIC [2]?
A: Its MIC is 0.39 µg/mL (≈ 0.492 µM).

Q: And the MIC [3]?
A: The MIC was 0.39 µg/mL (≈ 0.492 µM).

Q: What about the MIC [4] of the same compound?
A: The MIC was 100 µg/mL (≈ 126 µM).

Q: And the MIC (Escherichia coli SS)?
A: The MIC was 0.39 µg/mL (≈ 0.492 µM).

Q: And the MIC [5]?
A: The MIC was greater than 100 µg/mL.

Q: What about the MIC [6] of the same compound?
A: The MIC was 0.05 µg/mL (≈ 0.063 µM).

Q: What about the MIC [7] of the same compound?
A: The MIC was greater than 100 µg/mL.

Q: What about the MIC (Staphylococcus aureus 45) of the same compound?
A: Its MIC is 0.39 µg/mL (≈ 0.492 µM).

Q: And the MIC [8]?
A: The MIC was 0.39 µg/mL (≈ 0.492 µM).

Q: What about the MIC [9] of the same compound?
A: Its MIC is 0.02 µg/mL (≈ 0.0252 µM).

Q: What about the MIC (Acinetobacter SP CMX 669) of the same compound?
A: The MIC was 50 µg/mL (≈ 63 µM).

Q: And the MIC (Escherichia coli H560)?
A: The MIC was greater than 100 µg/mL.

Q: And the MIC [10]?
A: The MIC was 100 µg/mL (≈ 126 µM).

Q: And the MIC (Escherichia coli DC-2)?
A: Its MIC is greater than 100 µg/mL.

Q: What about the MIC [11] of the same compound?
A: Its MIC is 0.78 µg/mL (≈ 0.984 µM).

Q: What about the MIC [12] of the same compound?
A: Its MIC is 3.1 µg/mL (≈ 3.91 µM).

Q: And the MIC (Pseudomonas cepacia 2961)?
A: Its MIC is greater than 100 µg/mL.

Q: What about the MIC [13] of the same compound?
A: The MIC was greater than 100 µg/mL.

Q: What about the MIC [14] of the same compound?
A: The MIC was less than 0.005 µg/mL.

Q: What about the MIC (Escherichia coli JUHL) of the same compound?
A: Its MIC is greater than 100 µg/mL.

Q: And the MIC ([15]; ATCC4698, BHI agar, read-out: MIC)?
A: The MIC was 0.05 µg/mL (≈ 0.063 µM).

Q: What about the MIC [16] of the same compound?
A: The MIC was 3.1 µg/mL (≈ 3.91 µM).

Q: What about the MIC [17] of the same compound?
A: Its MIC is 0.39 µg/mL (≈ 0.492 µM).

Q: What about the MIC [18] of the same compound?
A: The MIC was greater than 100 µg/mL.

Q: And the MIC [19]?
A: Its MIC is less than 0.005 µg/mL.

Q: And the MIC ([20]; Micrococcus luteus, ATCC9341, 24 h, BHI agar)?
A: Its MIC is 0.02 µg/mL (≈ 0.0252 µM).

Q: What about the MIC [21] of the same compound?
A: Its MIC is 0.39 µg/mL (≈ 0.492 µM).

Q: Which MIC [1] does the source give for `CC[C@H]1OC(=O)[C@H](C)[C@@H](O[C@H]2C[C@@](C)(OC)[C@H](NS(C)(=O)=O)[C@H](C)O2)[C@H](C)[C@@H](O[C@@H]2O[C@H](C)C[C@H](N(C)C)[C@H]2O)[C@](C)(O)C[C@@H](C)[C@@H]2O[C@@]1(C)C(=O)[C@H]2C` [Example 11, (4"R,9S)-9-Deoxo-4",11,12-trideoxy-9,12-epoxy-4"-[(methylsulphonyl)amino]-11-oxoerythromycin A] here?
A: The MIC was 0.39 µg/mL (≈ 0.492 µM).

Q: And the MIC [2]?
A: The MIC was 0.39 µg/mL (≈ 0.492 µM).

Q: And the MIC [3]?
A: The MIC was 0.2 µg/mL (≈ 0.252 µM).

Q: And the MIC [4]?
A: Its MIC is 100 µg/mL (≈ 126 µM).

Q: What about the MIC (Escherichia coli SS) of the same compound?
A: The MIC was 0.78 µg/mL (≈ 0.984 µM).

Q: What about the MIC [5] of the same compound?
A: Its MIC is greater than 100 µg/mL.

Q: What about the MIC [6] of the same compound?
A: Its MIC is 0.05 µg/mL (≈ 0.063 µM).

Q: What about the MIC [7] of the same compound?
A: The MIC was greater than 100 µg/mL.

Q: And the MIC (Staphylococcus aureus 45)?
A: Its MIC is 0.39 µg/mL (≈ 0.492 µM).

Q: And the MIC [8]?
A: Its MIC is 0.78 µg/mL (≈ 0.984 µM).

Q: And the MIC [9]?
A: The MIC was 0.02 µg/mL (≈ 0.0252 µM).

Q: What about the MIC (Acinetobacter SP CMX 669) of the same compound?
A: Its MIC is 50 µg/mL (≈ 63 µM).

Q: What about the MIC (Escherichia coli H560) of the same compound?
A: The MIC was greater than 100 µg/mL.

Q: And the MIC [10]?
A: Its MIC is greater than 100 µg/mL.

Q: What about the MIC (Escherichia coli DC-2) of the same compound?
A: Its MIC is greater than 100 µg/mL.

Q: And the MIC [11]?
A: The MIC was 0.39 µg/mL (≈ 0.492 µM).

Q: What about the MIC ([12]; Pseudomonas aeruginosa K799/61, BHI agar, 20-24 h) of the same compound?
A: The MIC was 3.1 µg/mL (≈ 3.91 µM).

Q: And the MIC (Pseudomonas cepacia 2961)?
A: Its MIC is greater than 100 µg/mL.

Q: And the MIC [13]?
A: Its MIC is greater than 100 µg/mL.

Q: And the MIC [14]?
A: Its MIC is less than 0.005 µg/mL.

Q: What about the MIC (Escherichia coli JUHL) of the same compound?
A: Its MIC is greater than 100 µg/mL.

Q: What about the MIC ([15]; Micrococcus luteus, ATCC4698, 24 h, BHI agar) of the same compound?
A: The MIC was 0.1 µg/mL (≈ 0.126 µM).

Q: What about the MIC [16] of the same compound?
A: Its MIC is 0.78 µg/mL (≈ 0.984 µM).

Q: What about the MIC [17] of the same compound?
A: Its MIC is 0.39 µg/mL (≈ 0.492 µM).

Q: And the MIC [18]?
A: The MIC was greater than 100 µg/mL.

Q: And the MIC [19]?
A: The MIC was less than 0.005 µg/mL.

Q: And the MIC ([20]; ATCC9341, BHI agar, read-out: MIC)?
A: The MIC was 0.05 µg/mL (≈ 0.063 µM).

Q: And the MIC [21]?
A: The MIC was 0.39 µg/mL (≈ 0.492 µM).
